Data on one molecule can be found in US9040509B2, “Method of treating human skin and a skin care composition for use in such a method” (Pantarhei Bioscience B.V., priority 2002, dated 2015).

In data set [1] the test system is estrogen receptor in the human endometrium. The conditions noted are these: Tseng et al., cited from earlier work.
For data set [2], the target named is human ERβ (Homo sapiens (Human), UniProt Q92731). Put plainly: Competitive steroid binding assay, recombinant human ERβ, [3H]E2 as labeled ligand. The conditions noted are these: Cheng and Prusoff from measured IC50.
Data set [3] has as its system uterine vasodilation. Conditions: intravenously administered; cited from earlier work.
Data set [4] has as its target human ERα (Homo sapiens (Human), UniProt P03372). Put plainly: Competitive steroid binding assay, recombinant human ERα, [3H]E2 as labeled ligand. The conditions noted are these: Cheng and Prusoff from measured IC50.
The subject of data set [5] is uterus. Conditions: continuous administration from a subcutaneous depot; Martucci et al., 1977; cited from earlier work.
The subject of data set [6] is human breast cancer cells (MCF-7). Conditions: MCF-7, long term tissue culture; cited from earlier work.
Data set [7] has as its system rat uterine nuclear estrogen receptor. Conditions: cited from earlier work.
The subject of data set [8] is immature rat uterus. Conditions: subcutaneously administered, Holinka et al., cited from earlier work.
In data set [9] the test system is rat uterine cytosol estrogen receptor. The conditions noted are these: cited from earlier work.
For data set [10] the following is noted: intravenous, two adult women, cited from earlier work.
A short description of data set [11]: Elimination half-life after single subcutaneous administration in rats. It is filed as in vivo. Conditions: female, Sprague Dawley, rat; single sc dose 0.05, 0.5 or 5 mg/kg in arachidis oil; plasma. As for the experimental part:
To determine the in vivo stability of estetrol (E4) its elimination half-life in female Sprague Dawley rats was determined after a single subcutaneous administration (sc) at several dose levels.
Female Sprague Dawley rats were equipped with a permanent silatic heart catheter, as described by Kuipers et al. (1985, Gastroenterology, 88, 403-411). Rats were allowed to recover from surgery for 5 days and were than administered 0.05, 0.5, or 5 mg/kg E4 in 0.5 ml arachidis oil. E4 was injected in the neck area using a 1 ml syringe and 20 g needle. Blood samples were subsequently collected via the heart catheter in heparinized tubes at 0.5, 1, 2, 4, 8 and 24 hours. Erythrocytes were removed by centrifugation at 5000×g for 10 minutes at 4° C. and blood plasma was stored at −20° C. […] With each sample batch, a calibration curve with 6 calibrators was recorded. The calibration curve was calculated using linear regression (correlation coefficient>0.98), which permitted quantitation of plasma concentrations. […]
Plasma E4 concentration data were analysed with “WinNonLin, edition 3.1” and involved pharmacokinetic parameters for Cmax, AUC0-24 and half-life.

Read-outs that look alike come from different tables or passages of the source.

human ERβ, sequence (Q92731 whole entry): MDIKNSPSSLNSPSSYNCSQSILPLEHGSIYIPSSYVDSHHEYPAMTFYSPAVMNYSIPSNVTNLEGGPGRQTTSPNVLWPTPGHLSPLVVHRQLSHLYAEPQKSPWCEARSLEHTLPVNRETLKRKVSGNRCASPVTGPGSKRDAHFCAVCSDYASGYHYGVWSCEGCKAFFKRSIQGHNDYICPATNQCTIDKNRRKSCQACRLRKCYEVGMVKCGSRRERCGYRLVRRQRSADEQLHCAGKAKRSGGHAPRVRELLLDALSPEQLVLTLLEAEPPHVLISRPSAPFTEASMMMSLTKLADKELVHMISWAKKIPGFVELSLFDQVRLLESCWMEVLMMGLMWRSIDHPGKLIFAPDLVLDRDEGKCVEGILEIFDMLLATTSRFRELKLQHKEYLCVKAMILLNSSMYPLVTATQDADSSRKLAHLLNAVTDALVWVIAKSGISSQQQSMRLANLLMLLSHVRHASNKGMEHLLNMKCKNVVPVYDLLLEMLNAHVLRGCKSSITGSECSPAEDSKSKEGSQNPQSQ
human ERα, sequence (P03372 whole entry): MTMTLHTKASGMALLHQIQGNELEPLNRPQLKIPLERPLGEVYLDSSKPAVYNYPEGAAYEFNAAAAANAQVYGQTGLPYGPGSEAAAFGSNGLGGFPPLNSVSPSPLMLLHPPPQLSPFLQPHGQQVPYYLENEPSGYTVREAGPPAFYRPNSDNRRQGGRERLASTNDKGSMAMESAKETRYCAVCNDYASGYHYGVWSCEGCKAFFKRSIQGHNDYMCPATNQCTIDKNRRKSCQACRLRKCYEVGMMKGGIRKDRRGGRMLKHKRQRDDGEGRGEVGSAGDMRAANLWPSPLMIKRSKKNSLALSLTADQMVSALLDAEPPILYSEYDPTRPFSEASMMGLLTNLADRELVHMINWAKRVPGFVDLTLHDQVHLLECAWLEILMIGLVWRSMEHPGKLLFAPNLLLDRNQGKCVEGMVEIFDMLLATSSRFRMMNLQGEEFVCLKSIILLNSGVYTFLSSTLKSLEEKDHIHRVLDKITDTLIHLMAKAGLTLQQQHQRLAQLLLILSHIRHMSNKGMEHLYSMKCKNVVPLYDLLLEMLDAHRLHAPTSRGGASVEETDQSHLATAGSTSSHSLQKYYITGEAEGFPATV

As to `C[C@]12CC[C@@H]3c4ccc(O)cc4CC[C@H]3[C@@H]1[C@@H](O)[C@@H](O)[C@@H]2O` [E4, 1,3,5 (10)-estratrien-3,15α,16α,17β-tetrol], the “relative binding constant compared to 17β-estradiol (100%)” value in [1] (1976) is 6.25%. The “relative binding to estrogen receptors, of 17β-estradiol” value in data set [1] (1978) is reported as 1.5%. Besides, the Ki is 19 nM in data set [2] and 4.9 nM in data set [4]. For the same molecule, in [3], the “potency in uterine vasodilation, times less potent than estriol and 17β-estradiol” value is 15 to 30 times. Besides, the uterotrophic activity result in data set [5], in data set [8] (1979) and in data set [8] (1980) was “very weak uterotrophic activity” throughout. Further, the “agonistic potency in in vitro cell proliferation relative to 17β-estradiol” value in [6] was 2%. Besides, the results for the “relative binding affinity, of 17β-estradiol (100%)” value in [7] and in [9] were 0.3% and 0.5%, respectively. Besides, the excretion result in data set [10] (urine) is “rapidly and completely excreted in urine as the glucosiduronate”. Further, the metabolism entry in data set [10] is “virtually no metabolism except for conjugation took place”. In data set [11], the half-life was 2 to 3 h.

Broadly, the Ki is the dissociation constant of the complex between target and ligand, obtained from inhibition or displacement. As a reminder, the half-life is how long it takes for the measured level to halve. A low value points to fast loss.
